According to ChEMBL document CHEMBL1134673, “Modeling of poly(ADP-ribose)polymerase (PARP) inhibitors. Docking of ligands and quantitative structure-activity relationship analysis” (J Med Chem, 2001):

Target: not listed separately
Test: poly(ADP-ribose)-polymerase (PARP) inhibition

Row | SMILES | IC50 [µM]
1 | Cc1cccc2c(O)nc(-c3ccc(C#N)cc3)nc12 | 0.27
2 | COc1cccc2c(O)nc(-c3ccc(C(F)(F)F)cc3)nc12 | 39
3 | Cc1cccc2c(O)nc(-c3ccccc3)nc12 | 0.87
4 | COc1cccc2c(O)nc(-c3ccc([N+](=O)[O-])cc3)nc12 | 0.85
5 | Cc1cccc2c(O)nc(-c3ccc(O)cc3)nc12 | 0.22
6 | COc1cccc2c(O)nc(-c3ccccc3)nc12 | 4.2
7 | COc1ccc(-c2nc(O)c3cccc(C)c3n2)cc1 | 0.19
8 | O=[N+]([O-])c1ccc(-c2nc(O)c3cccc(O)c3n2)cc1 | 0.23
9 | COc1cccc2c(O)nc(-c3ccc(C#N)cc3)nc12 | 1.34

The remaining lines, values ahead:

Row | IC50 [µM] | SMILES
10 | 0.52 | Nc1ccc(-c2nc(O)c3cccc(O)c3n2)cc1
11 | 0.44 | Cc1cccc2c(O)nc(-c3ccc(N)cc3)nc12

Target: Poly [ADP-ribose] polymerase 1 (Homo sapiens, UniProt P09874)
Sequence (P09874 whole entry): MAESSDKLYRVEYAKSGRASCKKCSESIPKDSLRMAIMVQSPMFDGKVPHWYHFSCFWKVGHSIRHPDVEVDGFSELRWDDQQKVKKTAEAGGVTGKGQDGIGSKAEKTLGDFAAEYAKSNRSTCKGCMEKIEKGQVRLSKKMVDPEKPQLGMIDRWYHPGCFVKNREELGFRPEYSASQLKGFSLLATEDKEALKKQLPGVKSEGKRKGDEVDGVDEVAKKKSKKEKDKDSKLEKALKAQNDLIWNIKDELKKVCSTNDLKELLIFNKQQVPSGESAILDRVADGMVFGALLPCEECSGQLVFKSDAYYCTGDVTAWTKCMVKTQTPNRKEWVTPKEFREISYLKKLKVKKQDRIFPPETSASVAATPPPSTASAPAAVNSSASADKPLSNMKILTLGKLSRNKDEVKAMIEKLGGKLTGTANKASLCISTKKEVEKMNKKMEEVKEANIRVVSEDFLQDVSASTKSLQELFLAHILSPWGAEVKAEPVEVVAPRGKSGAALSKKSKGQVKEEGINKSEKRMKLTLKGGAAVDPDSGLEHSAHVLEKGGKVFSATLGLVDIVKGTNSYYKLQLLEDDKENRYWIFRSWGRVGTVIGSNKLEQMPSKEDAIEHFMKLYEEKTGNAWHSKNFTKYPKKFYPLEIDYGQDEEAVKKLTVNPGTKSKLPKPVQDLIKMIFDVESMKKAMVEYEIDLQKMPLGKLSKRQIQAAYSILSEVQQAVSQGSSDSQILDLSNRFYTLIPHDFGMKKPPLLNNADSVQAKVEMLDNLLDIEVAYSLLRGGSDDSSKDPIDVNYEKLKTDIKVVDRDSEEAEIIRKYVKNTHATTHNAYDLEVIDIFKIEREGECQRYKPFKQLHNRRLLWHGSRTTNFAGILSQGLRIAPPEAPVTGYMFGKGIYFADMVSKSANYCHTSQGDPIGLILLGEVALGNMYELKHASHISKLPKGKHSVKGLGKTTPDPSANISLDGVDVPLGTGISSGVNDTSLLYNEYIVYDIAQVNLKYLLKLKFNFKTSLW
Description: The compound was tested for poly(ADP-ribose)-polymerase (PARP) inhibition

Row | SMILES | IC50 [µM]
12 | O=c1[nH]c2ccc([N+](=O)[O-])cc2c2ccccc12 | 0.35
13 | O=c1[nH]cnc2ccccc12 [QUINAZOLINONE] | 9.5

Results, then the compound that gave them:

Row | IC50 [µM] | SMILES
14 | 300 | NC(=O)c1ccc(Cl)cc1
15 | 120 | CN(C)c1cccc(C(N)=O)c1
16 | 19 | Cc1cccc(C(N)=O)c1
17 | 280 | NC(=O)c1ccc(O)cc1
18 | 200 | NC(=O)c1ccc(F)cc1
19 | 20 | NC(=O)c1cccc(F)c1
20 | 1800 | NC(=O)c1ccc(N)cc1
21 | 160 | NC(=O)c1cccc([N+](=O)[O-])c1
22 | 2200 | NC(=O)c1ccc(Br)cc1
23 | 9.1 | NC(=O)c1cccc(O)c1
24 | 0.3 | O=c1[nH]c2ccccc2c2ccccc12
25 | 22 | NC(=O)c1ccccc1 [BENZAMIDE]
26 | 12 | O=c1[nH]ncc2ccccc12 [PHTHALAZINONE]
